Biological target: T1, NLRP3 (Homo sapiens, UniProt Q96P20)
T1 construct: host or cells: THP-1 cells differentiated with PMA
Assay: IL-1β Secretion Assay (NLRP3-dependent IL1β secretion in THP1 cells)
Type: cell-based
Settings: PMA-differentiated THP-1 cells; compounds incubated 20 h; 2.5 μM Nigericin 3 h; HTRF IL-1β readout; read-out: IC50 IL-1β Inhibition
Summary of the method: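 THP-1 cells differentiated with 100 ng/mL PMA for 24 h, then given compound (7-point 3-fold series, 1:200 from DMSO) for 20 h in RPMI+5% FBS. NLRP3 activated with 2.5 μM nigericin for 3 h; secreted IL-1β measured by HTRF; IC50 from logistic fit of % inhibition.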

T1 sequence (Q96P20 whole entry): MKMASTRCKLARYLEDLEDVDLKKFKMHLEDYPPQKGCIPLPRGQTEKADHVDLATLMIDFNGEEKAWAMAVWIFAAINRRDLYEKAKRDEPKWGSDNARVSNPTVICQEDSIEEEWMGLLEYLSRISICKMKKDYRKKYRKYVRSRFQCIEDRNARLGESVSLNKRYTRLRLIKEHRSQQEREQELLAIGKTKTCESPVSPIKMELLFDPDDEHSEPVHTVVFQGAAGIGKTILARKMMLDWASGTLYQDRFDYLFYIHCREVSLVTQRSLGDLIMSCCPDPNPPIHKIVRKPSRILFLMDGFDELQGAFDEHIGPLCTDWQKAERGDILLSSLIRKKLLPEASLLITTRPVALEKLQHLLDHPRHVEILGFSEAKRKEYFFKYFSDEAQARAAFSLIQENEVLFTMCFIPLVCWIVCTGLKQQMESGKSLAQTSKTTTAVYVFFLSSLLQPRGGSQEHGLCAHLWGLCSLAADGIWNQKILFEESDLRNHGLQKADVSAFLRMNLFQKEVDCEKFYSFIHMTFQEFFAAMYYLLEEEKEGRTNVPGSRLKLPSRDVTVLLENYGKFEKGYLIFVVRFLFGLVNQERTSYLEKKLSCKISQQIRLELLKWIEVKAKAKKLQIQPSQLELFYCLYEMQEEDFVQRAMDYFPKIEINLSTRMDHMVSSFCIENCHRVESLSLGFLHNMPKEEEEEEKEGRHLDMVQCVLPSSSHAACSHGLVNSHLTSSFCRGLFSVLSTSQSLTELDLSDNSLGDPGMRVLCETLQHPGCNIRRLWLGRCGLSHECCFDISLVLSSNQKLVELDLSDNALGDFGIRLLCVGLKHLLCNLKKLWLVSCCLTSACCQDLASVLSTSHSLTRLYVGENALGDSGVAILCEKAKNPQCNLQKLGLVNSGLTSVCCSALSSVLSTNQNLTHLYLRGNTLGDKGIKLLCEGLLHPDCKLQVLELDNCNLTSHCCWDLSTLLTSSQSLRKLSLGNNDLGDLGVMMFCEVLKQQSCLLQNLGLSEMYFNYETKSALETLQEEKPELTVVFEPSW

| Structure (SMILES) | IC50 [nM] |
| --- | --- |
| COc1ccc(-c2nnc(N[C@H]3CCCC[C@@H]3O)n3cc(C)cc23)c(OC(F)(F)F)c1 [Compound 133, (1S,2S)-2-({1-[4-methoxy-2-(trifluoromethoxy)phenyl]-7-methylpyrrolo[1,2-d][1,2,4]triazin-4-yl}amino)cyclohexan-1-ol] | 10 to 100 |
| CCN1CC[C@@H](O)[C@@H](Nc2nnc(-c3ccc(C(F)(F)F)cc3C(F)(F)F)c3cc(C)cn23)C1 [Compound 134, (3S,4R)-3-({1-[2,4-bis(trifluoromethyl)phenyl]-7-methylpyrrolo[1,2-d][1,2,4]triazin-4-yl}amino)-1-ethylpiperidin-4-ol] | 1 to 10 |
| CCN1CC[C@@H](O)[C@@H](Nc2nnc(-c3ccc(OC)cc3OC(F)(F)F)c3cc(C)cn23)C1 [Compound 135, (3S,4R)-1-ethyl-3-({1-[4-methoxy-2-(trifluoromethoxy)phenyl]-7-methylpyrrolo[1,2-d][1,2,4]triazin-4-yl}amino)piperidin-4-ol] | < 1 |
| Cc1ccc(-c2nnc(N[C@@H]3CCCC[C@H]3O)n3cccc23)c(OC(F)F)c1 [Compound 136, (1R,2R)-2-({1-[2-(difluoromethoxy)-4-methylphenyl]pyrrolo[1,2-d][1,2,4]triazin-4-yl}amino)cyclohexan-1-ol] | 1 to 10 |
| Cc1ccc(-c2nnc(N[C@@H]3CCCC[C@@H]3O)n3cccc23)c(OC(F)F)c1 [Compound 137, (1S,2R)-2-({1-[2-(difluoromethoxy)-4-methylphenyl]pyrrolo[1,2-d][1,2,4]triazin-4-yl}amino)cyclohexan-1-ol] | 1 to 10 |
| COc1ccc(-c2nnc(N[C@@H]3CCCC[C@H]3O)n3cccc23)c(CC(F)(F)F)c1 [Compound 138, (1R,2R)-2-({1-[4-methoxy-2-(2,2,2-trifluoroethyl)phenyl]pyrrolo[1,2-d][1,2,4]triazin-4-yl}amino)cyclohexan-1-ol] | 1 to 10 |
| COc1ccc(-c2nnc(NC3CCNC3=O)n3cccc23)c(CC(F)(F)F)c1 (centres unmarked) [Compound 139, 3-({1-[4-methoxy-2-(2,2,2-trifluoroethyl)phenyl]pyrrolo[1,2-d][1,2,4]triazin-4-yl}amino)pyrrolidin-2-one] | 1 to 10 |
| CN1CCC[C@@H](Nc2nnc(-c3ccc(C(F)(F)F)cc3OC(F)(F)F)c3cccn23)C1 [Compound 140, N-[(3R)-1-methylpiperidin-3-yl]-1-[2-(trifluoromethoxy)-4-(trifluoromethyl)phenyl]pyrrolo[1,2-d][1,2,4]triazin-4-amine] | < 1 |
| OC[C@H]1C[C@@H](Nc2nnc(-c3ccc(C(F)(F)F)cc3OC(F)(F)F)c3cccn23)C1 [Compound 141, [(1s,3s)-3-({1-[2-(trifluoromethoxy)-4-(trifluoromethyl)phenyl]pyrrolo[1,2-d][1,2,4]triazin-4-yl}amino)cyclobutyl]methanol] | 1 to 10 |
| CC(Nc1nnc(-c2ccc(C(F)(F)F)cc2OC(F)(F)F)c2cccn12)c1cccc(O)c1 (centres unmarked) [Compound 142, 3-[1-({1-[2-(trifluoromethoxy)-4-(trifluoromethyl)phenyl]pyrrolo[1,2-d][1,2,4]triazin-4-yl}amino)ethyl]phenol] | 1 to 10 |
| COc1ccc(-c2nnc(N[C@@H]3CCCN(CCO)C3)n3cccc23)c(OC2CC2)c1 [Compound 143, 2-[(3R)-3-({1-[2-(cyclopropyloxy)-4-methoxyphenyl]pyrrolo[1,2-d][1,2,4]triazin-4-yl}amino)piperidin-1-yl]ethan-1-ol] | 10 to 100 |
| COc1ccc(-c2nnc(N[C@@H]3CCOC[C@H]3O)n3cccc23)c(CC(F)(F)F)c1 [Compound 144, (3S,4R)-4-({1-[4-methoxy-2-(2,2,2-trifluoroethyl)phenyl]pyrrolo[1,2-d][1,2,4]triazin-4-yl}amino)oxan-3-ol] | 1 to 10 |
| COc1ccc(-c2nnc(N[C@@H]3CCCN(C)C3)n3cccc23)c(CC(F)(F)F)c1 [Compound 145, 1-[4-methoxy-2-(2,2,2-trifluoroethyl)phenyl]-N-[(3R)-1-methylpiperidin-3-yl]pyrrolo[1,2-d][1,2,4]triazin-4-amine] | < 1 |
| CN1CCC[C@@H](CNc2nnc(-c3ccc(C(F)(F)F)cc3CC(F)(F)F)c3cccn23)C1 [Compound 146, N-{[(3S)-1-methylpiperidin-3-yl]methyl}-1-[2-(2,2,2-trifluoroethyl)-4-(trifluoromethyl)phenyl]pyrrolo[1,2-d][1,2,4]triazin-4-amine] | 1 to 10 |
| CN1CCC[C@H](CNc2nnc(-c3ccc(C(F)(F)F)cc3CC(F)(F)F)c3cccn23)C1 [Compound 147, N-{[(3R)-1-methylpiperidin-3-yl]methyl}-1-[2-(2,2,2-trifluoroethyl)-4-(trifluoromethyl)phenyl]pyrrolo[1,2-d][1,2,4]triazin-4-amine] | 1 to 10 |
| COc1cccc(C(C)Nc2nnc(-c3ccc(OC)cc3C(F)(F)F)c3c(F)ccn23)c1 (centres unmarked) [Compound 148, 8-fluoro-N-[1-(3-methoxyphenyl)ethyl]-1-[4-methoxy-2-(trifluoromethyl)phenyl]pyrrolo[1,2-d][1,2,4]triazin-4-amine] | 100 to 300 |

| Structure (SMILES) | IC50 [nM] |
| --- | --- |
| COc1ccc(-c2nnc(NC(C)c3cccc(O)c3)n3ccc(F)c23)c(C(F)(F)F)c1 (centres unmarked) [Compound 149, 3-[1-({8-fluoro-1-[4-methoxy-2-(trifluoromethyl)phenyl]pyrrolo[1,2-d][1,2,4]triazin-4-yl}amino)ethyl]phenol] | 1 to 10 |
| FC(F)(F)Oc1cc(C(F)(F)F)ccc1-c1nnc(Nc2cc[nH]n2)n2cccc12 [Compound 150, N-(1H-pyrazol-3-yl)-1-[2-(trifluoromethoxy)-4-(trifluoromethyl)phenyl]pyrrolo[1,2-d][1,2,4]triazin-4-amine] | 100 to 300 |
| O[C@@H]1CCCC[C@H]1Nc1nnc(-c2ccc(C(F)(F)F)cc2OC(F)(F)F)c2cccn12 [Compound 151, (1R,2R)-2-({1-[2-(trifluoromethoxy)-4-(trifluoromethyl)phenyl]pyrrolo[1,2-d][1,2,4]triazin-4-yl}amino)cyclohexan-1-ol] | 1 to 10 |
| FC(F)Oc1ccc(-c2nnc(N[C@@H]3CCCOC3)n3cccc23)c(OC(F)(F)F)c1 [Compound 152, 1-[4-(difluoromethoxy)-2-(trifluoromethoxy)phenyl]-N-[(3R)-oxan-3-yl]pyrrolo[1,2-d][1,2,4]triazin-4-amine] | 1 to 10 |
| O[C@H]1CCC[C@@H](Nc2nnc(-c3ccc(OC(F)F)cc3OC(F)(F)F)c3cccn23)C1 [Compound 153, (1S,3R)-3-({1-[4-(difluoromethoxy)-2-(trifluoromethoxy)phenyl]pyrrolo[1,2-d][1,2,4]triazin-4-yl}amino)cyclohexan-1-ol] | 1 to 10 |
| O=C1NCCC1Nc1nnc(-c2ccc(OC(F)F)cc2OC(F)(F)F)c2cccn12 (centres unmarked) [Compound 154, 3-({1-[4-(difluoromethoxy)-2-(trifluoromethoxy)phenyl]pyrrolo[1,2-d][1,2,4]triazin-4-yl}amino)pyrrolidin-2-one] | 1 to 10 |
| FC(F)Oc1ccc(-c2nnc(Nc3cc[nH]n3)n3cccc23)c(OC(F)(F)F)c1 [Compound 155, 1-[4-(difluoromethoxy)-2-(trifluoromethoxy)phenyl]-N-(1H-pyrazol-3-yl)pyrrolo[1,2-d][1,2,4]triazin-4-amine] | 10 to 100 |
| Cc1ccc(-c2nnc(N[C@@H]3CCCC[C@H]3O)n3cccc23)c(CC(F)(F)F)c1 [Compound 156, (1R,2R)-2-({1-[4-methyl-2-(2,2,2-trifluoroethyl)phenyl]pyrrolo[1,2-d][1,2,4]triazin-4-yl}amino)cyclohexan-1-ol] | 1 to 10 |
| Cc1ccc(-c2nnc(NC3CCNC3=O)n3cccc23)c(CC(F)(F)F)c1 (centres unmarked) [Compound 157, 3-({1-[4-methyl-2-(2,2,2-trifluoroethyl)phenyl]pyrrolo[1,2-d][1,2,4]triazin-4-yl}amino)pyrrolidin-2-one] | 1 to 10 |
| Cc1ccc(-c2nnc(N[C@H]3C[C@@](C)(O)C3)n3cccc23)c(CC(F)(F)F)c1 [Compound 158, (1s,3s)-1-methyl-3-({1-[4-methyl-2-(2,2,2-trifluoroethyl)phenyl]pyrrolo[1,2-d][1,2,4]triazin-4-yl}amino)cyclobutan-1-ol] | 1 to 10 |
| Cc1ccc(-c2nnc(N[C@@H]3CCCN(C)C3)n3cccc23)c(CC(F)(F)F)c1 [Compound 159, N-[(3R)-1-methylpiperidin-3-yl]-1-[4-methyl-2-(2,2,2-trifluoroethyl)phenyl]pyrrolo[1,2-d][1,2,4]triazin-4-amine] | < 1 |
| Cc1cc2c(-c3ccc(C(F)(F)F)cc3C(F)(F)F)nnc(N[C@@H]3CCCC[C@H]3O)n2c1 [Compound 160, (1R,2R)-2-({1-[2,4-bis(trifluoromethyl)phenyl]-7-methylpyrrolo[1,2-d][1,2,4]triazin-4-yl}amino)cyclohexan-1-ol] | 1 to 10 |
| Cc1cc2c(-c3ccc(C(F)(F)F)cc3C(F)(F)F)nnc(NC3CCNC3=O)n2c1 (centres unmarked) [Compound 161, 3-({1-[2,4-bis(trifluoromethyl)phenyl]-7-methylpyrrolo[1,2-d][1,2,4]triazin-4-yl}amino)pyrrolidin-2-one] | 1 to 10 |
| COc1ccc(-c2nnc(NC3CCNC3=O)n3cc(C)cc23)c(OC(F)(F)F)c1 (centres unmarked) [Compound 162, 3-({1-[4-methoxy-2-(trifluoromethoxy)phenyl]-7-methylpyrrolo[1,2-d][1,2,4]triazin-4-yl}amino)pyrrolidin-2-one] | 1 to 10 |
| COc1ccc(-c2nnc(N[C@@H]3CCCC[C@H]3O)n3cc(C)cc23)c(OC(F)(F)F)c1 [Compound 163, (1R,2R)-2-({1-[4-methoxy-2-(trifluoromethoxy)phenyl]-7-methylpyrrolo[1,2-d][1,2,4]triazin-4-yl}amino)cyclohexan-1-ol] | 10 to 100 |
| Cc1cc2c(-c3ccc(C(F)(F)F)cc3C(F)(F)F)nnc(N[C@@H]3CCOC[C@H]3O)n2c1 [Compound 164, (3S,4R)-4-({1-[2,4-bis(trifluoromethyl)phenyl]-7-methylpyrrolo[1,2-d][1,2,4]triazin-4-yl}amino)oxan-3-ol] | 100 to 300 |
